Measured values taken from patent US20230000816A1, “SODIUM-GLUCOSE LINKED TRANSPORTER INHIBITORS FOR THE MANAGEMENT OF CHRONIC KIDNEY DISEASE, HYPERTENSION, AND HEART FAILURE IN COMPANION ANIMALS” (INCREVET, INC., priority 2019, published 2023).

Assays:
Sprague-Dawley rats = test: PPAR-γ agonist (pioglitazone)-mediated fluid retention / plasma expansion model, 7 days, drugs in drinking water; type: in vivo, rat
Source text: It has been recognized in human clinical practice that an undesirable side effect of PPAR-γ agonists of the thiazolidinedione class is fluid retention and edema, which limits their use in patients with congestive heart failure. The mechanism of action of the thiazolidinediones is believed to be through stimulation of expression of the epithelial sodium channel (ENaC) in the kidney, resulting in an increased uptake of sodium ions from the distal tubule. Sodium retention and the associated expansion of extracellular fluid volume are characteristic features of congestive heart failure in multiple species. […] The sodium channel blocker amiloride was delivered in drinking water to a third group of rats as a comparator. Plasma expansion was measured by hematocrit. […] Food weight was recorded to measure consumption over the course of the experiment. […] Full bottles were pre-weighed and the weights recorded to allow consumption to be measured over the course of the experiment. On days 1 and 7, rats were warmed using a heating pad and lightly anesthetized using isoflurane. Using a sterile scalpel blade, a small tail nick was made on the distal one third of the tail. Blood was collected in a heparinized microcapillary tube sealed with putty at one end and stored on ice until centrifugation (5000 rpm, 5 min). Plasma volume was determined using a microhematocrit capillary tube reader card. On day 7, rats, food and water bottles were again weighed and recorded and hematocrits were determined using blood collected by a tail nick.

[1] = tested on: client-owned dogs with CKD; conditions: cited from earlier work
[2] = tested on: client-owned cats with heart disease; conditions: 151 client-owned cats with heart disease; cited from earlier work
[3] = tested on: dogs with stage C heart failure; conditions: cited from earlier work; for median survival: dogs with stage C heart failure, composite primary endpoint
cats with CKD = conditions: cited from earlier work; for reduction in urinary protein to creatinine ratio: cats, 7, 30, 60, 90, 120 and 180 days
[4] = tested on: diabetic subjects with stage A3 albuminuria; conditions: humans, median 2.62 years; cited from earlier work
[5] = tested on: human SGLT2 compared to human SGLT1; conditions: compared with other SGLT inhibitors; cited from earlier work
[6] = tested on: dogs with stage B heart failure; conditions: cited from earlier work
[7] = rats, day 1 to day 7, mean ± SEM
[8] = rats, pioglitazone diet, mean ± SEM
[9] = rats, relative to day 1, mean ± SEM

Structure (SMILES): N=C(N)NC(=O)c1nc(Cl)c(N)nc1N [Amiloride, reference compound]
- Plasma volume, Day 7 (Sprague-Dawley rats; rats after 7 days pioglitazone diet, group mean ± SEM): 56.6 ± 0.4 % of blood volume
- Plasma volume, Day 1 (Sprague-Dawley rats; rats on 0.03% pioglitazone diet, by hematocrit, group mean ± SEM): 52.7 ± 0.9 % of blood volume
- Effect on pioglitazone-mediated plasma expansion (conclusion) (Sprague-Dawley rats; rats, 7 days): markedly less effective than bexagliflozin
- Body Weight (%), Δ (percent mass gain) (Sprague-Dawley rats; [7]): 10.8 ± 0.7%
- Body Weight (g), Δ (Sprague-Dawley rats; [7]): 40.0 ± 2.8 g
- Plasma volume, Δ (day 1 to day 7) (Sprague-Dawley rats; rats, pioglitazone diet, group mean ± SEM): 3.9 ± 0.7 % of blood volume
- Body Weight (g), Day 1 (Sprague-Dawley rats; [8]): 370.0 ± 6.0 g
- Body Weight (g), Day 7 (Sprague-Dawley rats; [8]): 410.0 ± 7.7 g
- Body Weight (%), Day 1 (Sprague-Dawley rats; [9]): 100 ± 0%
- Body Weight (%), Day 7 (Sprague-Dawley rats; [9]): 110.8 ± 0.7 %

Structure (SMILES): CCOC(=O)[C@H](CCc1ccccc1)N[C@H]1CCc2ccccc2N(CC(=O)O)C1=O [benazepril]
- difference in renal survival time vs placebo ([1]; 49 client-owned dogs): significance was not realized
- proteinuria (urinary protein to creatinine ratio) ([1]; dogs, p=0.0032): significantly improved
- primary endpoint of treatment failure [2]: no benefit
- median survival [3]: 140 days
- reduction in urinary protein to creatinine ratio (cats with CKD): not significant

Structure (SMILES): Cc1ccc([C@@H]2O[C@H](CO)[C@@H](O)[C@H](O)[C@H]2O)cc1Cc1ccc(-c2ccc(F)cc2)s1 [canagliflozin]
- risk of composite of end-stage kidney disease, doubling of serum creatinine, or renal or cardiovascular death, lower than placebo [4]: 30%

Structure (SMILES): CCc1ccc([C@@H]2O[C@H](CO)[C@@H](O)[C@H](O)[C@H]2O)cc1Cc1ccc2c(c1)OCCO2 [licogliflozin]
- selectivity for human SGLT2 compared to human SGLT1 (in words) [5]: lower selectivity

Structure (SMILES): Cc1cc(OCCCNCC(C)(C)C(N)=O)ccc1Cc1c(O[C@@H]2O[C@H](CO)[C@@H](O)[C@H](O)[C@H]2O)n[nH]c1C(C)C [mizagliflozin]
- selectivity for human SGLT2 compared to human SGLT1 (in words) [5]: more active against SGLT1 than SGLT2

Structure (SMILES): COc1ccc(-c2nc3ccc(C4=NNC(=O)CC4C)cc3[nH]2)cc1 (stereo not shown) [pimobendan]
- median time to the primary endpoint ([6]; dogs with stage B heart failure, onset of CHF, cardiac-related death, or euthanasia, 95% CI: 856-NA): 1228 days
- hazard ratio ([6]; pimobendan vs placebo, 95% CI: 0.47-0.87): 0.64
- median survival [3]: 267 days
- hazard ratio ([3]; pimobendan vs benazepril, 95% CI 0.516 to 0.916, p=0.0099): 0.688

Structure (SMILES): CCOc1ccc(Cc2cc([C@@H]3O[C@H](SC)[C@@H](O)[C@H](O)[C@H]3O)ccc2Cl)cc1 [sotagliflozin]
- selectivity for human SGLT2 compared to human SGLT1 (in words) [5]: lower selectivity

Structure (SMILES): CCCc1nc2c(C)cc(-c3nc4ccccc4n3C)cc2n1Cc1ccc(-c2ccccc2C(=O)O)cc1 [telmisartan]
- comparison with benazepril (cats with CKD; cats with CKD): noninferior to benazepril
- reduction in urinary protein to creatinine ratio (cats with CKD): significant at all time points
